Our source for the TGI values is PubChem BioAssay (NCI).

Among the test systems are DMS 273 small cell lung; P388/ADR leukemia; P388 leukemia; HOP-18 NSCLC; DMS 114 small cell lung; DLD-1 colon; SN12K1 renal; SNB-78 CNS; RXF-631 renal.
Common to all, as to assay: NCI tumour cell line growth inhibition, 48 h

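Tested at 5 concentrations; 48 h exposure; 96-well plates; endpoints linearly interpolated, else capped at highest concentration. TGI is the concentration that stops growth completely.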

Consider `Cn1c(-c2ccccc2)cc(-c2cccs2)c1-c1cccs1`, for which the TGI in the test with DMS 273 small cell lung, in the test with P388/ADR leukemia, in the test with P388 leukemia, in the test on HOP-18 NSCLC, in the test on DMS 114 small cell lung and in the test with DLD-1 colon was more than 100 µM throughout. Further, the TGI in the test on SN12K1 renal is more than 41.9 µM; in the test with SNB-78 CNS, more than 100 µM.
As for `Cc1cc(C)nc(NS(=O)(=O)c2ccc(NC(=O)c3cccc4c(Nc5ccc(S(=O)(=O)Nc6cc(C)on6)cc5)c5ccccc5nc34)cc2)n1`, the TGI with DMS 114 small cell lung is 39.8 µM; with DLD-1 colon, more than 100 µM; with SNB-78 CNS, more than 100 µM.
Turning to `CC12C=CC(=O)C=C1CCC1C3CCC(O)(C(=O)CO)C3(C)CC(O)C12F` (centres undefined), the TGI with DMS 273 small cell lung, in the test on DMS 114 small cell lung, in the test with DLD-1 colon and in the test on SNB-78 CNS was more than 100 µM each time.
Turning to `CC(N)Cc1ccc(Cl)c(Cl)c1` (centres undefined), the TGI was more than 71.9 µM in the test with DMS 273 small cell lung; more than 77.1 µM in the test on HOP-18 NSCLC; 48.1 µM with DMS 114 small cell lung; more than 100 µM in the test with DLD-1 colon; more than 100 µM in the test with SNB-78 CNS.
With `CN1C(c2ccccc2)CC(=O)C(N)C1c1ccccc1` (centres undefined), the TGI with DMS 273 small cell lung is more than 61.7 µM; with HOP-18 NSCLC, more than 100 µM; in the test on DLD-1 colon, more than 100 µM; with SNB-78 CNS it was 69.7 µM.
As to `Nc1[nH]c(=O)nc2c1cnn2C1CCCCO1` (centres undefined), the TGI in the test on DMS 273 small cell lung, in the test on HOP-18 NSCLC, in the test on RXF-631 renal, in the test with DLD-1 colon and in the test with SNB-78 CNS was more than 100 µM each time.
As for `C=C(C)C1Cc2c(c3ccccc3n(C)c2=O)O1` (centres undefined), the TGI with HOP-18 NSCLC, in the test on RXF-631 renal, in the test with DMS 114 small cell lung, in the test with DLD-1 colon and in the test on SNB-78 CNS was more than 100 µM in each case.
